Counter-ions that a name gives are not always drawn.
Columns and labels:
[1] = target: T1, human CB1 receptor (Homo sapiens, UniProt P21554); assay: Human CB1 receptor binding, [3H] CP-55,940 displacement on HEK cell membranes; set-up: expressed in transfected cells; membranes; conditions: [3H] CP-55,940 500 pM
Experimental: The Human CB1 receptor binding affinity and other biological activities of the compounds of this invention are determined by the following procedures.
Membrane preparation: Human Embryonic Kidney (HEK) Cells expressing the human CB1 receptor under transcriptional regulation of a tetracycline inducible promoter were grown in Dulbecco's Modified Essential Medium with sodium pyruvate (Invitrogen, Carlsbad, Calif.) containing 10% tetracycline free fetal bovine serum (Clonetech, Mountain View, Calif.) 100 μg/ml hygromycin (Calbiochem, San Diego, Calif.), 5 μg/ml blasticidin (Invitrogen). CB1 receptor expression was induced by addition of 1 μg/ml doxycycline (Calbiochem) and incubation for an additional 24 hours. Cells were released from flasks using Cell Dissociation Buffer (Invitrogen). Cells were pelleted by centrifugation at 500×G for 5 minutes. Membranes were prepared by resuspending cells in ice cold TEE Buffer (25 mM Tris pH 7.4, 5 mM EDTA, 5 mM EGTA, Complete Protease Inhibitor (Roche, Basel, Switzerland)). Cells were lysed with 12 strokes of a dounce homogenizer. Unlysed cells were pelleted by centrifugation at 500×G for 5 minutes. Membranes were pelleted by centrifugation at 25,000×G for 30 minutes. Membranes were resuspended in TEE, dounced 12 strokes, and pelleted a second time at 25,000×G for 30 minutes. Membrane pellet was resuspended in 50 mM Tris pH 7.4, 100 mM NaCl, 3 mM MgCl2, 0.2 mM EGTA, Complete Protease Inhibitor (Roche). Protein concentration was determined using the Micro-BCA Protein Assay Kit (Pierce, Rockford, Ill.) using BSA as a standard. Membranes were quick frozen and stored at −80 degrees Celsius until use. Binding experiments: 50 μl of test compound was incubated with 50 μl, of [^3H] CP-55,940 (Perkin Elmer, Boston, Mass.) (final concentration 500 pM) and 150 μl of membrane homogenate (1 μg/well) in polypropylene 96-well plates (Corning, Acton, Mass.). Final reaction conditions were 50 mM Tris pH 7.4, 100 mM NaCl, 3 mM MgCl2, 0.2 mM EGTA, 0.04% BSA. Nonspecific binding was determined by incubation with 50 μM WIN-55,212-2 (Tocris, Ellisville, Mo.). After incubation at room temperature for 60 minutes reactions were harvested by vacuum filtration through Unifilter GF/B-96 filters (Perkin Elmer) that had been presoaked in assay buffer containing 0.5% BSA (Sigma, St. Louis, Mo.) using a FilterMate Plate Harvester (Perkin Elmer). Filters were rinsed 4 times with 50 mM Tris pH 7.4, 0.025% Tween20 and dried at 50 degrees Celsius for at least 30 minutes. 40 μl of Microscint-20 (Perkin Elmer) was added per well, and plates were counted using a Top-Count Microplate Scintillation Counter (Perkin Elmer). Binding data were analyzed and EC50 and Ki values calculated using Graph Pad Prism 4.0 Software.

[2] = target: T1, human CB1 receptor; assay: GTPγS binding on membranes of CHO cells expressing the human CB1 receptor; format: biochemical; set-up: expressed in transfected cells; host or cells: CHO cells (G418 selection); membranes; conditions: CHO cell membranes, [35S] GTPγS
Experimental: Membrane preparation: CHO cells expressing the human CB1 receptor were grown to 80% confluence in Ham's F-12 Nutrient Medium (Invitrogen) containing 10% fetal bovine serum (Invitrogen), 1% pen/strep (Invitrogen), 1% Nonessential amino acids (Invitrogen) and 500 μg/ml G418 (Invitrogen). Cells were released from flasks using Cell Dissociation Buffer (Invitrogen). Cells were pelleted by centrifugation at 500×G for 5 minutes. Membranes were prepared by resuspending cells in ice cold Assay Buffer (25 mM Tris pH 7.4, 5 mM EDTA, 5 mM EGTA, Complete Protease Inhibitor (Roche)). Cells were lysed with 12 strokes of a dounce homogenizer. Unlysed cells were pelleted by centrifugation at 500×G for 5 minutes. Membranes were pelleted by centrifugation at 25,000×G for 30 minutes. Membranes were resuspended in TEE, dounced 12 strokes, and pelleted a second time at 25,000×G for 30 minutes. Membrane pellet was resuspended in 50 mM Tris pH 7.4, 100 mM NaCl, 3 mM MgCl2, 0.2 mM EGTA, Complete Protease Inhibitor (Roche). Protein concentration was determined using the Micro-BCA Protein Assay Kit (Pierce) using BSA as a standard. Membranes were frozen and stored at −80 degrees Celsius until use. GTPγS Binding: 40 μl of test compound was incubated with 20 μl of [^35S] GTPγS (Perkin Elmer) (1250 Ci/millimole) and 140 μl of membrane homogenate (5 ug/well) in polypropylene 96-well plates (Corning). Final reaction conditions were 50 mM Tris pH 7.4, 100 mM NaCl, 3 mM […], 0.2 mM EGTA, 0.04% BSA. After incubation at 37 degrees Celsius for 45 minutes reactions were harvested by vacuum filtration through Unifilter GF/B-96 filters (Perkin Elmer) using a FilterMate Plate Harvester (Perkin Elmer). Filters were rinsed 4 times with ice cold 50 mM Tris pH 7.4, 3 mM MgCl2, 0.2 mM EGTA and dried at 50 degrees Celsius for at least 30 minutes. 40 μl of Microscint-20 (Perkin Elmer) was added per well, and plates were counted using a Top-Count Microplate Scintillation Counter (Perkin Elmer). Binding data were analyzed and EC50 values were calculated using Graph Pad Prism 4.0 Software.

T1 sequence (P21554 whole entry): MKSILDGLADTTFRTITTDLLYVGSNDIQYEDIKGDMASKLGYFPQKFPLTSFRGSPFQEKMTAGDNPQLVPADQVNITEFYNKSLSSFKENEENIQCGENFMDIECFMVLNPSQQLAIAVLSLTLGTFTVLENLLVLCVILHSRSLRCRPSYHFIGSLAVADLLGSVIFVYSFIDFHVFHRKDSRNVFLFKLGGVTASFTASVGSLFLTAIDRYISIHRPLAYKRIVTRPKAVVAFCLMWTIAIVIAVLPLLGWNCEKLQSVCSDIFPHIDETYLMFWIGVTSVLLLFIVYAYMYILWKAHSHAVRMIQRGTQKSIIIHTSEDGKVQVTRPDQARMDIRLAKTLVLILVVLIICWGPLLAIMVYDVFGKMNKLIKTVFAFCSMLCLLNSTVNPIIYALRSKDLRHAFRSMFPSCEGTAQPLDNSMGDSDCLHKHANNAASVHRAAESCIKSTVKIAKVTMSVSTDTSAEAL

CC[C@H](C)[C@H](NC(=O)n1c(=O)n(CCN2CCCCC2)c2ccccc21)C(N)=O (as salt: hydrochloride)
melting point: 217.1 °C

Cc1nc(C(C)NC(=O)n2c(=O)n(CC3CCOCC3)c3ccccc32)cs1 (stereo not shown) [Example 350]
Ki [1]: 0.0134 µM
EC50 [2]: 0.131 µM

Cc1cc(CNC(=O)n2c(=O)n(CC3CCOCC3)c3ccccc32)c(C(F)(F)F)o1 [Example 320]
Ki [1]: 0.0042 µM
EC50 [2]: 0.0986 µM

CCCCCn1c(=O)n(C(=O)N[C@H]2c3ccccc3C[C@H]2O)c2ccccc21 [Example 190]
Ki [1]: 0.00809 µM
EC50 [2]: 0.406 µM

O=C(N[C@H]1c2ccccc2C[C@H]1O)n1c(=O)n(CC2CCC2)c2ccccc21 [Example 189]
Ki [1]: 0.0884 µM
EC50 [2]: 1.02 µM

Cc1cc(CNC(=O)n2c(=O)n(CC3CCOCC3)c3ccccc32)c(C)o1 [Example 311]
Ki [1]: 0.00203 µM
EC50 [2]: 0.057 µM

CC(C)(C)[C@H](NC(=O)n1c(=O)n(CC2CC=C(F)CC2)c2ccccc21)C(N)=O (single isomer, unassigned) [Example 305]
Ki [1]: 0.00018 µM
EC50 [2]: 0.00174 µM

O=C(N[C@H]1CCCC[C@@H]1O)n1c(=O)n(CC2CCCCC2)c2ccccc21 [Example 191]
Ki [1]: 0.0105 µM
EC50 [2]: 0.394 µM

CC(C)(C)[C@H](NC(=O)n1c(=O)n(CC2CCCCC2)c2c(F)cccc21)C(N)=O [Example 172]
Ki [1]: 0.00077 µM
EC50 [2]: 0.0078 µM

Cc1ccc2c(c1)n(CC1CCCCC1)c(=O)n2C(=O)N[C@H](C(N)=O)C(C)C [Example 269]
Ki [1]: 0.00295 µM
EC50 [2]: 0.024 µM

CC(C)(C)[C@H](NC(=O)n1c(=O)n(CC2CCCCC2)c2ccc(F)cc21)C(N)=O [Example 165]
Ki [1]: 0.00082 µM
EC50 [2]: 0.0274 µM

CC(C)(C)[C@H](NC(=O)n1c(=O)n(Cc2cccc(F)c2)c2ccccc21)C(N)=O [Example 362]
Ki [1]: 0.0037 µM
EC50 [2]: 0.106 µM

CC(C)(C)[C@H](NC(=O)n1c(=O)n(CC2CCCCC2)c2cc(Cl)ccc21)C(N)=O [Example 170]
Ki [1]: 0.00028 µM
EC50 [2]: 0.00186 µM

CC(C)(C)[C@H](NC(=O)n1c(=O)n(Cc2ccccc2F)c2ccccc21)C(N)=O [Example 357]
Ki [1]: 0.0024 µM
EC50 [2]: 0.123 µM

CCCCCn1c(=O)n(C(=O)N[C@H](C(N)=O)C(C)C)c2ccccc21 [Example 205]
Ki [1]: 0.069 µM
EC50 [2]: 0.422 µM

CC(C)(C)[C@H](NC(=O)n1c(=O)n(CC2CCCCC2)c2cc(Br)ccc21)C(N)=O [Example 307]
Ki [1]: 0.00185 µM
EC50 [2]: 0.0495 µM

CC(C)(C)[C@H](NC(=O)n1c(=O)n(CC2CC=C(F)CC2)c2ccccc21)C(N)=O (stereo partly shown) [Example 304]
Ki [1]: 0.00015 µM
EC50 [2]: 0.00087 µM

O=C(N[C@H]1CCCc2ccccc21)n1c(=O)n(CC2CCC2)c2ccccc21 [Example 198]
Ki [1]: 0.00579 µM
EC50 [2]: 0.0465 µM

CC(C)(C)[C@H](NC(=O)n1c(=O)n(CCCCC#N)c2ccccc21)C(N)=O [Example 223]
Ki [1]: 0.102 µM
EC50 [2]: 1.86 µM

CN(C)CC(C)(C)CNC(=O)n1c(=O)n(CC2CCCCC2)c2ccccc21 [Example 182]
Ki [1]: 0.017 µM
EC50 [2]: 0.267 µM

CCCCCn1c(=O)n(C(=O)N[C@H](CO)C(C)(C)C)c2ccccc21 [Example 178]
Ki [1]: 0.00845 µM
EC50 [2]: 0.137 µM

CC(C)(C)[C@H](NC(=O)n1c(=O)n(CC2CCC2)c2ccccc21)C(N)=O [Example 201]
Ki [1]: 0.00494 µM
EC50 [2]: 0.0453 µM

Cc1cccc2c1n(CCS(C)(=O)=O)c(=O)n2C(=O)N[C@H](C(=O)N(C)C)C(C)(C)C
melting point: 190.7 °C

O=C(N[C@H]1c2ccccc2C[C@H]1O)n1c(=O)n(CC2CCCCC2)c2ccccc21 [Example 188]
Ki [1]: 0.0019 µM
EC50 [2]: 0.0877 µM

CC(C)[C@H](NC(=O)n1c(=O)n(CC2CCCCC2)c2ccccc21)C(N)=O [Example 203]
Ki [1]: 0.00823 µM
EC50 [2]: 0.0741 µM

Cc1cc(CNC(=O)n2c(=O)n(CC3CCOCC3)c3ccccc32)no1 [Example 312]
Ki [1]: 0.0695 µM
EC50 [2]: 0.38 µM

Cc1ccc2c(c1)n(CC1CCCCC1)c(=O)n2C(=O)NC1(C(N)=O)CCCCC1 [Example 266]
Ki [1]: 0.109 µM
EC50 [2]: > 2.85 µM

CCc1nc(CNC(=O)n2c(=O)n(CC3CCOCC3)c3ccccc32)no1 [Example 327]
Ki [1]: 0.036 µM
EC50 [2]: > 10 µM

CC(C)(C)[C@H](NC(=O)n1c(=O)n(CC2CCOCC2)c2cc(C#N)ccc21)C(N)=O [Example 272]
Ki [1]: 0.058 µM
EC50 [2]: 0.0454 µM

CC(C)(C)[C@H](NC(=O)n1c(=O)n(Cc2ccc(F)cc2)c2ccccc21)C(N)=O [Example 363]
Ki [1]: 0.00036 µM
EC50 [2]: 0.00474 µM

Cc1ccc2c(c1)n(CC1CCCCC1)c(=O)n2C(=O)N[C@H](C(N)=O)C1CCCCC1 [Example 273]
Ki [1]: 0.0575 µM
EC50 [2]: 0.244 µM

CCCCn1c(=O)n(C(=O)N[C@H](C(N)=O)C(C)(C)C)c2ccccc21 [Example 292]
Ki [1]: 0.00209 µM
EC50 [2]: 0.0751 µM

CNC(=O)[C@@H](NC(=O)n1c(=O)n(CC2CCOCC2)c2ccccc21)C(C)(C)C [Example 303]
Ki [1]: 0.00571 µM
EC50 [2]: 0.0366 µM

CC(C)(C)[C@H](NC(=O)n1c(=O)n(CC2CCCCC2)c2ccccc21)C(N)=O [Example 200]
Ki [1]: 0.00052 µM
EC50 [2]: 0.0969 µM

CC(C)(C)[C@H](NC(=O)n1c(=O)n(CC2CCOCC2)c2ccccc21)C(=O)NCCCO [Example 318]
Ki [1]: 0.0239 µM
EC50 [2]: 0.23 µM

CC(C)(C)[C@H](NC(=O)n1c(=O)n(Cc2ccccc2)c2ccccc21)C(=O)NCCO [Example 360]
Ki [1]: 0.0193 µM
EC50 [2]: 0.149 µM

CC(C)(C)[C@H](NC(=O)n1c(=O)n(CC2CCOCC2)c2cc(F)ccc21)C(N)=O [Example 290]
Ki [1]: 0.0192 µM
EC50 [2]: 0.0251 µM

O=C(NCc1ccoc1)n1c(=O)n(CC2CCOCC2)c2ccccc21 [Example 329]
Ki [1]: 0.028 µM
EC50 [2]: 0.606 µM

Cc1ccc2c(c1)n(CC1CCCCC1)c(=O)n2C(=O)N[C@@H](Cc1ccccc1)C(N)=O [Example 268]
Ki [1]: 0.13 µM
EC50 [2]: 2.58 µM

Source: patent US20090298811A1, “BENZIMIDAZOLONE DERIVATIVES” (Pfizer Inc, priority 2006, published 2009)
